Experimental data published in US9181218B2, “Compounds for improved stem cell differentiation into hepatocytes” (Hoffmann-La Roche Inc., priority 2013, dated 2015).

Test system: interferon-stimulated genes (ISGs)
Test: Microarray analysis of iCell Hepatocytes treated with the compound of example 1
Assay type: cell-based, Human
Conditions: DAY 7
From the text: iCell Hepatocytes treated with the compound of example 1 results in the up and down-regulation of a host of genes; including a kinetic effect on interferon-stimulated gene (ISGs) expression. See FIGS. 15-I and 15-II, 16-I and 16-II and 18 and Table 1.

## O=C(NCc1cccc(F)c1)c1cccc2nc(-c3c(NC[C@@H](O)c4ccccc4)cc[nH]c3=O)[nH]c12 [Example 1, 2-[4-((S)-2-hydroxy-2-phenyl-ethylamino)-2-oxo-1,2-dihydro-pyridin-3-yl]-3H-benzoimidazole-4-carboxylic acid 3-fluoro-benzylamide]
  ARHGEF3 Raw Est Fold Change: −2.76
  ASNS Raw Est Fold Change: 1.63
  ATP1B3 Raw Est Fold Change: −1.72
  ATP10D Raw Est Fold Change: −2.21
  AXL Raw Est Fold Change: 5.52
  B2M Raw Est Fold Change: −1.77
  B4GALT5 Raw Est Fold Change: −2.50
  BAG1 Raw Est Fold Change: 1.33
  BCL3 Raw Est Fold Change: −3.15
  BHMT Raw Est Fold Change: 100.46
  BLVRA Raw Est Fold Change: −2.70
  BRF2 Raw Est Fold Change: 1.46
  C1R Raw Est Fold Change: −2.64
  C1S Raw Est Fold Change: −2.00
  C4BPA Raw Est Fold Change: −3.52
  C4orf33 Raw Est Fold Change: 1.65
  C6orf85 Raw Est Fold Change: 1.31
  C10orf10 Raw Est Fold Change: −6.70
  CAPN2 Raw Est Fold Change: −1.90
  CASP1 Raw Est Fold Change: 1.40
  CASP4 Raw Est Fold Change: −43.41
  CASP5 Raw Est Fold Change: −11.12
  CCL19 Raw Est Fold Change: 2.16
  CCND3 Raw Est Fold Change: −4.18
  CD3D Raw Est Fold Change: −3.72
  CD9 Raw Est Fold Change: 4.66
  CD38 Raw Est Fold Change: −60.43
  CD47 Raw Est Fold Change: −2.51
  CD163 Raw Est Fold Change: 4.54
  CD164 Raw Est Fold Change: −1.47
  CD300LF Raw Est Fold Change: −15.50
  CEBPD Raw Est Fold Change: −6.95
  CFB Raw Est Fold Change: −2.96
  CHST12 Raw Est Fold Change: −1.59
  CKB Raw Est Fold Change: 2.95
  CLEC2D Raw Est Fold Change: 2.54
  CLEC4E Raw Est Fold Change: 4.33
  COL16A1 Raw Est Fold Change: 1.53
  CPT1A Raw Est Fold Change: 1.49
  CREB3L3 Raw Est Fold Change: −4.65
  CREM Raw Est Fold Change: 1.71
  CRP Raw Est Fold Change: −63.77
  CRYM Raw Est Fold Change: 3.57
  CSDA Raw Est Fold Change: −5.60
  CTGF Raw Est Fold Change: −3.88
  CX3CR1 Raw Est Fold Change: 9.27
  CXCL11 Raw Est Fold Change: 3.15
  CYP1B1 Raw Est Fold Change: −6.56
  CYR61 Raw Est Fold Change: −7.93
  DHFR Raw Est Fold Change: 2.31
  DNAPTP6 Raw Est Fold Change: 2.61
  EFNB2 Raw Est Fold Change: −7.87
  EGR1 Raw Est Fold Change: −4.88
  EHHADH Raw Est Fold Change: 6.99
  EIF2AK2 Raw Est Fold Change: −1.14
  EIF2S2 Raw Est Fold Change: 1.81
  EMP1 Raw Est Fold Change: 2.60
  EPAS1 Raw Est Fold Change: −1.83
  EREG Raw Est Fold Change: −21.64
  ETS2 Raw Est Fold Change: −2.17
  ETV6 Raw Est Fold Change: −1.87
  ETV7 Raw Est Fold Change: −3.42
  EWSR1 Raw Est Fold Change: −2.03
  F3 Raw Est Fold Change: 2.54
  FAM70A Raw Est Fold Change: 4.10
  FAM102A Raw Est Fold Change: −1.88
  FBXO6 Raw Est Fold Change: 3.59
  FCGR1A Raw Est Fold Change: 2.56
  FER1L3 Raw Est Fold Change: −2.43
  FGG Raw Est Fold Change: −1.22
  FLT1 Raw Est Fold Change: −1.38
  FNDC3B Raw Est Fold Change: −2.02
  G6PC Raw Est Fold Change: 6.12
  GALNT2 Raw Est Fold Change: −6.32
  GBP2 Raw Est Fold Change: −4.50
  GBP3 Raw Est Fold Change: 2.28
  GCH1 Raw Est Fold Change: 1.83
  GK Raw Est Fold Change: −2.38
  GLB1 Raw Est Fold Change: −1.33
  GLUL Raw Est Fold Change: 3.54
  GNB1 Raw Est Fold Change: −1.39
  GPR171 Raw Est Fold Change: 1.93
  GRN Raw Est Fold Change: −1.37
  HAO1 Raw Est Fold Change: 3.59
  HBE1 Raw Est Fold Change: −2.67
  HDAC2 Raw Est Fold Change: −1.34
  HEG1 Raw Est Fold Change: −4.07
  HERC6 Raw Est Fold Change: −1.49
  HESX1 Raw Est Fold Change: 3.01
  HIF1A Raw Est Fold Change: −4.78
  HK2 Raw Est Fold Change: −3.18
  HLA-DMA Raw Est Fold Change: −2.39
  HLA-DOA Raw Est Fold Change: 3.70
  HPSE Raw Est Fold Change: −2.92
  ICAM1 Raw Est Fold Change: −9.02
  ID1 Raw Est Fold Change: −5.53
  IER3 Raw Est Fold Change: −9.69
  IFI16 Raw Est Fold Change: −11.00
  IFIH1 Raw Est Fold Change: 1.47
  IFIT1 Raw Est Fold Change: 16.72
  IFIT3 Raw Est Fold Change: 2.91
  IFITM1 Raw Est Fold Change: −15.75
  IFITM2 Raw Est Fold Change: −4.71
  IFITM3 Raw Est Fold Change: −1.73
  IFNGR1 Raw Est Fold Change: −3.76
  IGHM Raw Est Fold Change: 3.80
  IKZF2 Raw Est Fold Change: −2.69
  IL1RN Raw Est Fold Change: −2.59
  IL6ST Raw Est Fold Change: −1.83
  IL8 Raw Est Fold Change: −9.22
  IL17RB Raw Est Fold Change: 1.38
  IL28RA Raw Est Fold Change: 1.55
  IMPA2 Raw Est Fold Change: −1.62
  INPP5B Raw Est Fold Change: 1.29
  IQGAP1 Raw Est Fold Change: −2.60
  IRF1 Raw Est Fold Change: 1.36
  IRF7 Raw Est Fold Change: −3.42
  IRF8 Raw Est Fold Change: −1.86
  ISOC1 Raw Est Fold Change: 1.96
  ITGA2 Raw Est Fold Change: −5.40
  ITGA6 Raw Est Fold Change: 1.89
